Measurements as given in US20210338652A1, “COMPOSITION AND USE FOR THE TREATMENT OF PARKINSON'S DISEASE AND RELATED DISORDERS” (CHASE THERAPEUTICS CORPORATION, priority 2018, published 2021).
Like-named read-outs stand apart in the source and are kept apart here.

Legend:
[1] = system: humans; conditions: for Maximal Tolerated Dose (MTD): oral pramipexole escalation to max 6 mg, ondansetron 8 mg or aprepitant 80 mg where combined
[2] = in vivo; cited from earlier work

SMILES	dose limiting toxicity ([1]; both, human, in vivo)	Maximal Tolerated Dose (MTD) ([1]; subject 1001) [mg]	Maximal Tolerated Dose (MTD) ([1]; subject 1006) [mg]	Maximal Tolerated Dose (MTD) ([1]; subject 1007) [mg]	Maximal Tolerated Dose (MTD) ([1]; subject 1008) [mg]	plasma half-life [2]
CCCN[C@H]1CCc2nc(N)sc2C1 [Pramipexole, (S)-6-propylamino-4,5,6,7-tetrahydro-1,3-benzothiazole-2-amine]	gastro-intestinal adverse event in all 4 subjects	2.0	<0.5	4.0	1.0	–
C=CCN1C[C@H](C(=O)N(CCCN(C)C)C(=O)NCC)C[C@@H]2c3cccc4[nH]cc(c34)C[C@H]21 [cabergoline, (6aR,9R,10aR)—N-[3-(dimethylamino)propyl]-N-(ethylcarbamoyl)-7-prop-2-enyl-6,6a,8,9,10,10a-hexahydro-4H-indolo[4,3-fg]quinoline-9-carboxamide]	–	–	–	–	–	about 65 hours
